Measurements taken from patent US8759342B2, “Benzo[1,4]oxazin-3-one, benzo[1,4]thiazin-3-one and quinolin-2-one urotensin II receptor antagonists” (Janssen Pharmaceutica NV, priority 2006, dated 2014).

Molecular target: T1, rat GPR14 (U-II receptor) (Rattus norvegicus, UniProt P49684)
T1 construct: expressed in transfected cells
T1 sequence (P49684 1-386): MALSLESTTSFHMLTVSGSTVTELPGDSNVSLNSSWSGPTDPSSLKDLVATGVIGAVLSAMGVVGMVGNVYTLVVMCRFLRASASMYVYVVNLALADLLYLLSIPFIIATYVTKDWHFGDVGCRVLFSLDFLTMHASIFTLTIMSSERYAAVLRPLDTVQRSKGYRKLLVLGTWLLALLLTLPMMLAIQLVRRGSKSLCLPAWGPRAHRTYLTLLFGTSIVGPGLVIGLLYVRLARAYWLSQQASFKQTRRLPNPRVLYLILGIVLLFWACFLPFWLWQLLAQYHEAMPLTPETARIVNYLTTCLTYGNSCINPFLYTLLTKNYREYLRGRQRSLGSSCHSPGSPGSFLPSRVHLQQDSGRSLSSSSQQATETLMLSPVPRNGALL
Assay: Calcium flux assay (FLIPR)
Assay type: cell-based
Conditions: Inhibition of acetyl-cyclic[Cys-Phe-Trp-Lys-(2-Nal)-Cys]-NH2 (1 nM) induced Ca2+ mobilization (FLIPR) in CHO cells transfected with rat UII receptor; 5 min incubation
Excerpt: To derive these cells, the complete coding sequence of rat […] was amplified by nested PCR from rat heart marathon-Ready cDNA. […] The PCR products were cloned into pcDNA3 (Invitrogen) digested with EcoR I and Xba I. Clones containing rat U-II receptor were verified by complete sequencing of the U-II receptor insert to ensure a lack of PCR-introduced errors. The constructed vector was transfected into CHO cells by using lipofectamine (GIBCO BRL). CHO cells with high expression of rat U-II receptor were selected and established as stable cell lines by using G418. CHO cells were seeded at 25,000 cells per well into 96-well, black-wall, clear-bottom microtiter plates 24 hrs before assay. Cells in culture media (DMEM/F12 containing 15 mM HEPES, L-glutamine, pyridoxine hydrochloride; 10% fetal bovine serum; 1 mg/mL G418 sulfate; antibiotic-antimycotic; pH 7.4) were loaded with proprietary dye, from the FLIPR Calcium Assay Kit (Molecular Devices), prepared in assay buffer (Hanks Balanced Salts Solution, 20 mM HEPES, 0.1% BSA, 2.5 mM probenecid, pH 7.4), and incubated for 1 hr at 37° C. Calcium mobilization determinations were performed at room temperature (23° C.).

Compound | IC50
CN(CCc1ccccc1)C(=O)c1ccccc1C1CCN(CCN2C(=O)COc3ccccc32)CC1 [Cpd 18, N-methyl-2-{1-[2-(3-oxo-2,3-dihydro-benzo[1,4]oxazin-4-yl)-ethyl]-piperidin-4-yl}-N-phenethyl-benzamide] | 15 µM
O=C(NCCc1ccc(F)c(F)c1)c1ccccc1C1CCN(CCN2C(=O)COc3ccccc32)CC1 [Cpd 19, N-[2-(3,4-difluoro-phenyl)-ethyl]-2-{1-[2-(3-oxo-2,3-dihydro-benzo[1,4]oxazin-4-yl)-ethyl]-piperidin-4-yl}-benzamide] | 6 µM
CC(Cc1ccc(Cl)cc1)NC(=O)c1ccccc1C1CCN(CCN2C(=O)COc3ccccc32)CC1 (stereo not shown) [Cpd 12, N-[2-(4-chloro-phenyl)-1-methyl-ethyl]-2-{1-[2-(3-oxo-2,3-dihydro-benzo[1,4]oxazin-4-yl)-ethyl]-piperidin-4-yl}-benzamide] | 10 µM
O=C(NCCCN1CCCC1=O)c1ccccc1C1CCN(CCN2C(=O)COc3ccccc32)CC1 [Cpd 51, 2-{1-[2-(3-oxo-2,3-dihydro-benzo[1,4]oxazin-4-yl)-ethyl]-piperidin-4-yl}-N-[3-(2-oxo-pyrrolidin-1-yl)-propyl]-benzamide] | 22 µM
O=C(NCCc1ccncc1)c1ccccc1C1CCN(CCN2C(=O)COc3ccccc32)CC1 [Cpd 45, 2-{1-[2-(3-oxo-2,3-dihydro-benzo[1,4]oxazin-4-yl)-ethyl]-piperidin-4-yl}-N-(2-pyridin-4-yl-ethyl)-benzamide] | 16 µM
O=C(NCCNC(=O)c1ccccc1C1CCN(CCN2C(=O)COc3ccccc32)CC1)Nc1ccc2ccccc2c1 [Cpd 54, N-[2-(3-naphthalen-2-yl-ureido)-ethyl]-2-{1-[2-(3-oxo-2,3-dihydro-benzo[1,4]oxazin-4-yl)-ethyl]-piperidin-4-yl}-benzamide] | 7 µM
O=C1COc2ccccc2N1CCN1CCC(c2cccc(F)c2)CC1 [Cpd 88, 4-{2-[4-(3-fluoro-phenyl)-piperidin-1-yl]-ethyl}-4H-benzo[1,4]oxazin-3-one] | 28 µM
O=C(NCCc1ccc(Cl)c(Cl)c1)c1ccccc1C1CCN(CCN2C(=O)COc3ccccc32)CC1 [Cpd 11, N-[2-(3,4-dichloro-phenyl)-ethyl]-2-{1-[2-(3-oxo-2,3-dihydro-benzo[1,4]oxazin-4-yl)-ethyl]-piperidin-4-yl}-benzamide] | 5.4 µM
O=C(NC1CCc2ccccc21)c1ccccc1C1CCN(CCN2C(=O)COc3ccccc32)CC1 (stereo not shown) [Cpd 27, N-indan-1-yl-2-{1-[2-(3-oxo-2,3-dihydro-benzo[1,4]oxazin-4-yl)-ethyl]-piperidin-4-yl}-benzamide] | 43 µM
CN(C)C(=O)c1cc(Cl)ccc1C1CCN(CCN2C(=O)COc3ccccc32)CC1 [Cpd 59, 5-chloro-N,N-dimethyl-2-{1-[2-(3-oxo-2,3-dihydro-benzo[1,4]oxazin-4-yl)-ethyl]-piperidin-4-yl}-benzamide] | 10 µM
O=C(NCCN1CCCCC1)c1ccccc1C1CCN(CCN2C(=O)COc3ccccc32)CC1 [Cpd 52, 2-{1-[2-(3-oxo-2,3-dihydro-benzo[1,4]oxazin-4-yl)-ethyl]-piperidin-4-yl}-N-(2-piperidin-1-yl-ethyl)-benzamide] | 16 µM
CC(CNC(=O)c1ccccc1C1CCN(CCN2C(=O)COc3ccccc32)CC1)c1ccccc1 (stereo not shown) [Cpd 28, 2-{1-[2-(3-oxo-2,3-dihydro-benzo[1,4]oxazin-4-yl)-ethyl]-piperidin-4-yl}-N-(2-phenyl-propyl)-benzamide] | 9 µM
O=C(NCc1ccncc1)c1ccccc1C1CCN(CCN2C(=O)COc3ccccc32)CC1 [Cpd 44, 2-{1-[2-(3-oxo-2,3-dihydro-benzo[1,4]oxazin-4-yl)-ethyl]-piperidin-4-yl}-N-pyridin-4-ylmethyl-benzamide] | 21 µM
O=C(NCc1ccccc1)c1ccccc1C1CCN(CCN2C(=O)COc3ccccc32)CC1 [Cpd 2, N-benzyl-2-{1-[2-(3-oxo-2,3-dihydro-benzo[1,4]oxazin-4-yl)-ethyl]-piperidin-4-yl}-benzamide] | 7.9 µM
O=C1COc2ccccc2N1CCN1CCC(C(=O)NCCCCc2ccccc2)(c2ccccc2)CC1 [Cpd 108, 1-[2-(3-oxo-2,3-dihydro-benzo[1,4]oxazin-4-yl)-ethyl]-4-phenyl-piperidine-4-carboxylic acid (4-phenyl-butyl)-amide] | 8.8 µM
O=C1COc2ccccc2N1CCN1CCC(C(=O)NCc2ccccc2)(c2ccccc2)CC1 [Cpd 104, 1-[2-(3-oxo-2,3-dihydro-benzo[1,4]oxazin-4-yl)-ethyl]-4-phenyl-piperidine-4-carboxylic acid benzylamide] | 26 µM
O=C(NCCCn1ccnc1)c1ccccc1C1CCN(CCN2C(=O)COc3ccccc32)CC1 [Cpd 48, N-(3-imidazol-1-yl-propyl)-2-{1-[2-(3-oxo-2,3-dihydro-benzo[1,4]oxazin-4-yl)-ethyl]-piperidin-4-yl}-benzamide] | 43 µM
O=C(c1ccccc1C1CCN(CCN2C(=O)COc3ccccc32)CC1)N1CCc2ccccc2C1 [Cpd 53, 4-(2-{4-[2-(3,4-dihydro-1H-isoquinoline-2-carbonyl)-phenyl]-piperidin-1-yl}-ethyl)-4H-benzo[1,4]oxazin-3-one] | 18 µM
O=C(NCCc1ccc(C(F)(F)F)cc1)c1ccccc1C1CCN(CCN2C(=O)COc3ccccc32)CC1 [Cpd 40, 2-{1-[2-(3-oxo-2,3-dihydro-benzo[1,4]oxazin-4-yl)-ethyl]-piperidin-4-yl}-N-[2-(4-trifluoromethyl-phenyl)-ethyl]-benzamide] | 4 µM
O=C(NCCN1CCNCC1)c1cc(Cl)ccc1C1CCN(CCN2C(=O)COc3ccccc32)CC1 [Cpd 73, 5-chloro-2-{1-[2-(3-oxo-2,3-dihydro-benzo[1,4]oxazin-4-yl)-ethyl]-piperidin-4-yl}-N-(2-piperazin-1-yl-ethyl)-benzamide] | 1.9 µM
O=C(NCCc1cc(F)cc(F)c1)c1ccccc1C1CCN(CCN2C(=O)COc3ccccc32)CC1 [Cpd 21, N-[2-(3,5-difluoro-phenyl)-ethyl]-2-{1-[2-(3-oxo-2,3-dihydro-benzo[1,4]oxazin-4-yl)-ethyl]-piperidin-4-yl}-benzamide] | 9 µM
CN(CCc1ccccc1)C(=O)C1(c2ccccc2)CCN(CCN2C(=O)COc3ccccc32)CC1 [Cpd 106, 1-[2-(3-oxo-2,3-dihydro-benzo[1,4]oxazin-4-yl)-ethyl]-4-phenyl-piperidine-4-carboxylic acid methyl-phenethyl-amide] | 14 µM
CCOCCCNC(=O)c1ccccc1C1CCN(CCN2C(=O)COc3ccccc32)CC1 [Cpd 38, N-(3-ethoxy-propyl)-2-{1-[2-(3-oxo-2,3-dihydro-benzo[1,4]oxazin-4-yl)-ethyl]-piperidin-4-yl}-benzamide] | 23 µM
CC(C)NC(=O)NCCCCCNC(=O)c1cc(Cl)ccc1C1CCN(CCN2C(=O)COc3ccccc32)CC1 [Cpd 80, 5-chloro-N-[5-(3-isopropyl-ureido)-pentyl]-2-{1-[2-(3-oxo-2,3-dihydro-benzo[1,4]oxazin-4-yl)-ethyl]-piperidin-4-yl}-benzamide] | 0.21 µM
CC(C)(C)OC(=O)N1CCN(CCNC(=O)c2ccccc2C2CC3CCC(C2)N3CCN2C(=O)COc3ccccc32)CC1 (stereo not shown) [Cpd 96, 4-[2-(2-{8-[2-(3-oxo-2,3-dihydro-benzo[1,4]oxazin-4-yl)-ethyl]-8-aza-bicyclo[3.2.1]oct-3-yl}-benzoylamino)-ethyl]-piperazine-1-carboxylic acid tert-butyl ester] | 3.5 µM
